± gives the expanded uncertainty stated by the source.
What was measured:
[1] = xn = mol fraction of the nth substance listed; conditions: 101 kPa, Liquid; for mass density: Vibrating tube method
[2] = 101 kPa, Liquid; for mass density: Vibrating tube method

C1CCOCC1 [tetrahydropyran] + CCC(C)Cl
[1], x1 = 1
Conditions | kinematic viscosity [m2/s] | mass density [kg/m3]
298.15 K | 9.1e-07 ± 1.2e-08 | 878.81 ± 2
313.15 K | 7.57e-07 ± 1e-08 | 863.67 ± 2

C1CCOCC1 [tetrahydropyran] + CC(C)CCl
[1], x1 = 1
Conditions | kinematic viscosity [m2/s] | mass density [kg/m3]
298.15 K | 9.1e-07 ± 1.2e-08 | 878.81 ± 2
313.15 K | 7.57e-07 ± 1e-08 | 863.67 ± 2

CC(C)CCl [1-chloro-2-methylpropane]
[2]
Conditions | kinematic viscosity [m2/s] | mass density [kg/m3]
298.15 K | 4.93e-07 ± 7.3e-09 | 871.13 ± 2
313.15 K | 4.29e-07 ± 6.6e-09 | 853.51 ± 2

C1CCOCC1 [tetrahydropyran]
[2]
Conditions | kinematic viscosity [m2/s] | mass density [kg/m3]
298.15 K | 9.1e-07 ± 1.2e-08 | 878.81 ± 2
313.15 K | 7.57e-07 ± 1e-08 | 863.67 ± 2

C1CCOCC1 [tetrahydropyran] + CC(C)(C)Cl
[1], x1 = 1
Conditions | kinematic viscosity [m2/s] | mass density [kg/m3]
298.15 K | 9.1e-07 ± 1.2e-08 | 878.81 ± 2
313.15 K | 7.57e-07 ± 1e-08 | 863.67 ± 2

C1CCOCC1 [tetrahydropyran] + CCCCCl
[1], x1 = 1
Conditions | kinematic viscosity [m2/s] | mass density [kg/m3]
298.15 K | 9.1e-07 ± 1.2e-08 | 878.81 ± 2
313.15 K | 7.57e-07 ± 1e-08 | 863.67 ± 2

CC(C)(C)Cl [2-chloro-2-methylpropane] + C1CCOCC1
[1]
Conditions | kinematic viscosity [m2/s] | mass density [kg/m3]
298.15 K, x2 = 0 | 5.68e-07 ± 8.2e-09 | 836.45 ± 2
298.15 K, x2 = 0.0324 | – | 838.08 ± 2
298.15 K, x2 = 0.0614 | 5.84e-07 ± 8.4e-09 | –
298.15 K, x2 = 0.1075 | 5.96e-07 ± 8.5e-09 | –
298.15 K, x2 = 0.1086 | – | 842.07 ± 2
298.15 K, x2 = 0.2097 | – | 847.11 ± 2
298.15 K, x2 = 0.2173 | 6.27e-07 ± 8.9e-09 | –
298.15 K, x2 = 0.2891 | – | 851.05 ± 2
298.15 K, x2 = 0.3205 | 6.57e-07 ± 9.3e-09 | –
298.15 K, x2 = 0.42 | 6.88e-07 ± 9.6e-09 | –
298.15 K, x2 = 0.4276 | – | 857.41 ± 2
298.15 K, x2 = 0.496 | – | 860.32 ± 2
298.15 K, x2 = 0.5176 | 7.2e-07 ± 1e-08 | –
298.15 K, x2 = 0.6107 | – | 864.98 ± 2
298.15 K, x2 = 0.6155 | 7.54e-07 ± 1e-08 | –
298.15 K, x2 = 0.6483 | – | 866.46 ± 2
298.15 K, x2 = 0.7156 | 7.91e-07 ± 1.1e-08 | –
298.15 K, x2 = 0.8093 | – | 872.39 ± 2
298.15 K, x2 = 0.8277 | 8.35e-07 ± 1.1e-08 | –
298.15 K, x2 = 0.8606 | – | 874.22 ± 2
298.15 K, x2 = 0.9097 | 8.7e-07 ± 1.2e-08 | –
298.15 K, x2 = 0.954 | – | 877.25 ± 2
298.15 K, x2 = 0.9547 | 8.89e-07 ± 1.2e-08 | –
313.15 K, x2 = 0 | 4.77e-07 ± 7.1e-09 | 818.31 ± 2
313.15 K, x2 = 0.0451 | 4.87e-07 ± 7.2e-09 | –
313.15 K, x2 = 0.0584 | – | 821.7 ± 2
313.15 K, x2 = 0.0875 | – | 823.35 ± 2
313.15 K, x2 = 0.0887 | 4.97e-07 ± 7.4e-09 | –
313.15 K, x2 = 0.1943 | – | 829.15 ± 2
313.15 K, x2 = 0.1978 | 5.21e-07 ± 7.6e-09 | –
313.15 K, x2 = 0.3028 | – | 834.83 ± 2
313.15 K, x2 = 0.3053 | 5.47e-07 ± 7.9e-09 | –
313.15 K, x2 = 0.3972 | 5.7e-07 ± 8.2e-09 | –
313.15 K, x2 = 0.4249 | – | 840.83 ± 2
313.15 K, x2 = 0.4929 | – | 843.99 ± 2
313.15 K, x2 = 0.5024 | 5.98e-07 ± 8.6e-09 | –
313.15 K, x2 = 0.6093 | – | 849.16 ± 2
313.15 K, x2 = 0.6359 | 6.36e-07 ± 9e-09 | –
313.15 K, x2 = 0.7052 | – | 853.15 ± 2
313.15 K, x2 = 0.7056 | 6.57e-07 ± 9.3e-09 | –
313.15 K, x2 = 0.796 | 6.86e-07 ± 9.6e-09 | –
313.15 K, x2 = 0.7988 | – | 856.89 ± 2
313.15 K, x2 = 0.9063 | 7.23e-07 ± 1e-08 | –
313.15 K, x2 = 0.9097 | – | 860.95 ± 2
313.15 K, x2 = 0.9526 | 7.4e-07 ± 1e-08 | –
313.15 K, x2 = 0.9614 | – | 862.64 ± 2

CC(C)CCl [1-chloro-2-methylpropane] + C1CCOCC1
[1]
Conditions | kinematic viscosity [m2/s] | mass density [kg/m3]
298.15 K, x2 = 0 | 4.93e-07 ± 7.3e-09 | 871.13 ± 2
298.15 K, x2 = 0.048 | – | 871.69 ± 2
298.15 K, x2 = 0.054 | 5.06e-07 ± 7.5e-09 | –
298.15 K, x2 = 0.1069 | 5.19e-07 ± 7.6e-09 | –
298.15 K, x2 = 0.1084 | – | 872.39 ± 2
298.15 K, x2 = 0.2033 | 5.46e-07 ± 7.9e-09 | –
298.15 K, x2 = 0.212 | – | 873.53 ± 2
298.15 K, x2 = 0.29 | – | 874.38 ± 2
298.15 K, x2 = 0.311 | 5.78e-07 ± 8.3e-09 | –
298.15 K, x2 = 0.3951 | – | 875.37 ± 2
298.15 K, x2 = 0.4126 | 6.11e-07 ± 8.7e-09 | –
298.15 K, x2 = 0.504 | 6.45e-07 ± 9.1e-09 | –
298.15 K, x2 = 0.5062 | – | 876.3 ± 2
298.15 K, x2 = 0.595 | 6.82e-07 ± 9.5e-09 | –
298.15 K, x2 = 0.6273 | – | 877.23 ± 2
298.15 K, x2 = 0.6897 | – | 877.63 ± 2
298.15 K, x2 = 0.6954 | 7.27e-07 ± 1e-08 | –
298.15 K, x2 = 0.8028 | 7.83e-07 ± 1.1e-08 | –
298.15 K, x2 = 0.8111 | – | 878.26 ± 2
298.15 K, x2 = 0.9066 | 8.46e-07 ± 1.2e-08 | –
298.15 K, x2 = 0.9088 | – | 878.68 ± 2
298.15 K, x2 = 0.952 | – | 878.79 ± 2
298.15 K, x2 = 0.9578 | 8.8e-07 ± 1.2e-08 | –
313.15 K, x2 = 0 | 4.29e-07 ± 6.6e-09 | 853.51 ± 2
313.15 K, x2 = 0.0432 | – | 854.17 ± 2
313.15 K, x2 = 0.054 | 4.4e-07 ± 6.7e-09 | –
313.15 K, x2 = 0.0934 | – | 854.93 ± 2
313.15 K, x2 = 0.1069 | 4.51e-07 ± 6.8e-09 | –
313.15 K, x2 = 0.1923 | – | 856.35 ± 2
313.15 K, x2 = 0.2033 | 4.72e-07 ± 7.1e-09 | –
313.15 K, x2 = 0.3025 | – | 857.83 ± 2
313.15 K, x2 = 0.311 | 4.97e-07 ± 7.4e-09 | –
313.15 K, x2 = 0.406 | – | 859.08 ± 2
313.15 K, x2 = 0.4126 | 5.23e-07 ± 7.7e-09 | –
313.15 K, x2 = 0.5018 | – | 860.14 ± 2
313.15 K, x2 = 0.504 | 5.5e-07 ± 8e-09 | –
313.15 K, x2 = 0.595 | 5.8e-07 ± 8.3e-09 | –
313.15 K, x2 = 0.6079 | – | 861.19 ± 2
313.15 K, x2 = 0.6954 | 6.16e-07 ± 8.8e-09 | –
313.15 K, x2 = 0.7238 | – | 862.24 ± 2
313.15 K, x2 = 0.7895 | – | 862.78 ± 2
313.15 K, x2 = 0.8028 | 6.6e-07 ± 9.3e-09 | –
313.15 K, x2 = 0.8874 | – | 863.42 ± 2
313.15 K, x2 = 0.9066 | 7.07e-07 ± 9.8e-09 | –
313.15 K, x2 = 0.9463 | – | 863.68 ± 2
313.15 K, x2 = 0.9578 | 7.33e-07 ± 1e-08 | –

— the NIST ThermoML archive (doi:10.1007/s10765-006-0100-z)
